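Cultured in 96-well plates, cells were exposed to test compound for 48 hours across five concentrations. Here, GI50 denotes the concentration required for 50% inhibition of growth. TGI: total growth inhibition.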
Legend:
Experiment in all cases: inhibition of tumour cell growth, NCI panel, 48 h
786-0 renal = test system: 786-0 renal
A498 renal = test system: A498 renal
A549 NSCLC = test system: A549 NSCLC
ACHN renal = test system: ACHN renal
BT-549 breast = test system: BT-549 breast
CAKI-1 renal = test system: CAKI-1 renal
CCRF-CEM leukemia = test system: CCRF-CEM leukemia
COLO 205 colon = test system: COLO 205 colon
DU-145 prostate = test system: DU-145 prostate
EKVX NSCLC = test system: EKVX NSCLC
HCC-2998 colon = test system: HCC-2998 colon
HCT-116 colon = test system: HCT-116 colon
HCT-15 colon = test system: HCT-15 colon
HL-60(TB) leukemia = test system: HL-60(TB) leukemia
HOP-62 NSCLC = test system: HOP-62 NSCLC
HOP-92 NSCLC = test system: HOP-92 NSCLC
HS 578T breast = test system: HS 578T breast
HT29 colon = test system: HT29 colon
IGROV1 ovarian = test system: IGROV1 ovarian
K-562 leukemia = test system: K-562 leukemia
KM12 colon = test system: KM12 colon
LOX IMVI melanoma = test system: LOX IMVI melanoma
M14 melanoma = test system: M14 melanoma
MALME-3M melanoma = test system: MALME-3M melanoma
MCF7 breast = test system: MCF7 breast
MDA-MB-231 breast = test system: MDA-MB-231 breast
MDA-MB-435 = test system: MDA-MB-435
MDA-MB-468 breast = test system: MDA-MB-468 breast
MOLT-4 leukemia = test system: MOLT-4 leukemia
NCI-H226 lung = test system: NCI-H226 lung
NCI-H23 lung = test system: NCI-H23 lung
NCI-H460 lung = test system: NCI-H460 lung
NCI-H522 lung = test system: NCI-H522 lung
OVCAR-3 ovarian = test system: OVCAR-3 ovarian
OVCAR-4 ovarian = test system: OVCAR-4 ovarian
OVCAR-5 ovarian = test system: OVCAR-5 ovarian
OVCAR-8 ovarian = test system: OVCAR-8 ovarian
PC-3 prostate = test system: PC-3 prostate
RPMI-8226 leukemia = test system: RPMI-8226 leukemia
RXF 393 renal = test system: RXF 393 renal
SF-268 CNS = test system: SF-268 CNS
SF-295 CNS = test system: SF-295 CNS
SF-539 CNS = test system: SF-539 CNS
SK-MEL-2 melanoma = test system: SK-MEL-2 melanoma
SK-MEL-28 melanoma = test system: SK-MEL-28 melanoma
SK-MEL-5 melanoma = test system: SK-MEL-5 melanoma
SK-OV-3 ovarian = test system: SK-OV-3 ovarian
SN12C renal = test system: SN12C renal
SNB-19 CNS = test system: SNB-19 CNS
SNB-75 CNS = test system: SNB-75 CNS
SR leukemia = test system: SR leukemia
SW-620 colon = test system: SW-620 colon
T-47D breast = test system: T-47D breast
TK-10 renal = test system: TK-10 renal
U251 CNS = test system: U251 CNS
UACC-257 melanoma = test system: UACC-257 melanoma
UACC-62 melanoma = test system: UACC-62 melanoma
UO-31 renal = test system: UO-31 renal

SMILES: COc1cc(C2C(C(=O)OCc3ccccc3)=C(C)Nc3nc4ccccc4n32)cc(OC)c1OC (stereo unspecified)
- GI50 (786-0 renal): 1.8 µM
- TGI (786-0 renal): 3.56 µM
- GI50 (A498 renal): 1.88 µM
- TGI (A498 renal): 4.37 µM
- GI50 (A549 NSCLC): 3.28 µM
- TGI (A549 NSCLC): 11.4 µM
- GI50 (ACHN renal): 2.97 µM
- TGI (ACHN renal): 9.01 µM
- GI50 (BT-549 breast): 4.09 µM
- TGI (BT-549 breast): 18.1 µM
- GI50 (CAKI-1 renal): 2.45 µM
- TGI (CAKI-1 renal): 11.4 µM
- GI50 (CCRF-CEM leukemia): 7.01 µM
- TGI (CCRF-CEM leukemia): > 100 µM
- GI50 (COLO 205 colon): 12.5 µM
- TGI (COLO 205 colon): > 100 µM
- GI50 (DU-145 prostate): 7.06 µM
- TGI (DU-145 prostate): 55.8 µM
- GI50 (EKVX NSCLC): 10.8 µM
- TGI (EKVX NSCLC): 56.2 µM
- GI50 (HCC-2998 colon): 14.4 µM
- TGI (HCC-2998 colon): > 100 µM
- GI50 (HCT-116 colon): 3.25 µM
- TGI (HCT-116 colon): 10.5 µM
- GI50 (HCT-15 colon): 5.91 µM
- TGI (HCT-15 colon): > 100 µM
- GI50 (HL-60(TB) leukemia): 7.02 µM
- TGI (HL-60(TB) leukemia): 76.7 µM
- GI50 (HOP-62 NSCLC): 2.75 µM
- TGI (HOP-62 NSCLC): 9.15 µM
- GI50 (HOP-92 NSCLC): 2.12 µM
- TGI (HOP-92 NSCLC): 6.61 µM
- GI50 (HS 578T breast): 2.25 µM
- TGI (HS 578T breast): 7.65 µM
- GI50 (HT29 colon): 4.35 µM
- TGI (HT29 colon): 22.3 µM
- GI50 (IGROV1 ovarian): 4.42 µM
- TGI (IGROV1 ovarian): 30.5 µM
- GI50 (K-562 leukemia): 3.38 µM
- TGI (K-562 leukemia): > 100 µM
- GI50 (KM12 colon): 3.75 µM
- TGI (KM12 colon): 27.4 µM
- GI50 (LOX IMVI melanoma): 3.43 µM
- TGI (LOX IMVI melanoma): 12.9 µM
- GI50 (M14 melanoma): 6.01 µM
- TGI (M14 melanoma): 71 µM
- GI50 (MALME-3M melanoma): 1.74 µM
- TGI (MALME-3M melanoma): 5.71 µM
- GI50 (MCF7 breast): 3.56 µM
- TGI (MCF7 breast): 17.8 µM
- GI50 (MDA-MB-231 breast): 1.97 µM
- TGI (MDA-MB-231 breast): 4.68 µM
- GI50 (MDA-MB-435): 2.26 µM
- TGI (MDA-MB-435): 6.25 µM
- GI50 (MDA-MB-468 breast): 2.11 µM
- TGI (MDA-MB-468 breast): 5.83 µM
- GI50 (MOLT-4 leukemia): 11.3 µM
- TGI (MOLT-4 leukemia): > 100 µM
- GI50 (NCI-H226 lung): 2.19 µM
- TGI (NCI-H226 lung): 6.81 µM
- GI50 (NCI-H23 lung): 7 µM
- TGI (NCI-H23 lung): 29 µM
- GI50 (NCI-H460 lung): 3.87 µM
- TGI (NCI-H460 lung): 19.6 µM
- GI50 (NCI-H522 lung): 2.64 µM
- TGI (NCI-H522 lung): 10.3 µM
- GI50 (OVCAR-3 ovarian): 2.67 µM
- TGI (OVCAR-3 ovarian): 7.56 µM
- GI50 (OVCAR-4 ovarian): 2.41 µM
- TGI (OVCAR-4 ovarian): 7.87 µM
- GI50 (OVCAR-5 ovarian): 7.88 µM
- TGI (OVCAR-5 ovarian): 38.3 µM
- GI50 (OVCAR-8 ovarian): 3.73 µM
- TGI (OVCAR-8 ovarian): 14.4 µM
- GI50 (PC-3 prostate): 6.63 µM
- TGI (PC-3 prostate): > 100 µM
- GI50 (RPMI-8226 leukemia): 6.96 µM
- TGI (RPMI-8226 leukemia): > 100 µM
- GI50 (RXF 393 renal): 1.4 µM
- TGI (RXF 393 renal): 4.71 µM
- GI50 (SF-268 CNS): 3.22 µM
- TGI (SF-268 CNS): 19 µM
- GI50 (SF-295 CNS): 3.35 µM
- TGI (SF-295 CNS): 13.2 µM
- GI50 (SF-539 CNS): 1.98 µM
- TGI (SF-539 CNS): 4.37 µM
- GI50 (SK-MEL-2 melanoma): 2.61 µM
- TGI (SK-MEL-2 melanoma): 7.76 µM
- GI50 (SK-MEL-28 melanoma): 5.46 µM
- TGI (SK-MEL-28 melanoma): 59 µM
- GI50 (SK-MEL-5 melanoma): 4.41 µM
- TGI (SK-MEL-5 melanoma): 19.5 µM
- GI50 (SK-OV-3 ovarian): 2.46 µM
- TGI (SK-OV-3 ovarian): 5.86 µM
- GI50 (SN12C renal): 3.3 µM
- TGI (SN12C renal): 21.2 µM
- GI50 (SNB-19 CNS): 3.65 µM
- TGI (SNB-19 CNS): 15.8 µM
- GI50 (SNB-75 CNS): 1 µM
- TGI (SNB-75 CNS): 3.22 µM
- GI50 (SR leukemia): 3.93 µM
- TGI (SR leukemia): > 100 µM
- GI50 (SW-620 colon): 6.23 µM
- TGI (SW-620 colon): > 100 µM
- GI50 (T-47D breast): 3.15 µM
- TGI (T-47D breast): 14.5 µM
- GI50 (TK-10 renal): 2.15 µM
- TGI (TK-10 renal): 5.4 µM
- GI50 (U251 CNS): 3.25 µM
- TGI (U251 CNS): 11.3 µM
- GI50 (UACC-257 melanoma): 11.2 µM
- TGI (UACC-257 melanoma): 66.3 µM
- GI50 (UACC-62 melanoma): 2.15 µM
- TGI (UACC-62 melanoma): 8.07 µM
- GI50 (UO-31 renal): 2.11 µM
- TGI (UO-31 renal): 5.27 µM
